Laboratory results published in patent US9334272B2, “Derivatives of purinic and pyrimidinic antiviral agents and use thereof as potent anticancer agents” (Ramot at Tel-Aviv University Ltd., priority 2007, dated 2016).

Key:
[1] = system: ICR mice; assay: Acute toxicity assay in mice; assay type: in vivo; conditions: 2 weeks
Description: (§1) Male ICR mice, 8 weeks old (Harlan, Israel) were acclimated for 10 days before administration of the tested compounds. The animals were monitored for two weeks and weighed three times per week.

[2] = Acute toxicity assay in mice; assay type: in vivo; conditions: male, mouse, in vivo; single per os dose, ICR mice
Description: as §1

[3] = system: 4T1 murine breast carcinoma; assay: Metastatic 4T1 breast carcinoma model; assay type: in vivo, mice; conditions: 4T1 model; for anti-cancer activity (number of metastases and lung weight): 40 or 80 mg/kg, FIG. 18
Description: The syngeneic murine breast carcinoma metastatic model was performed with 8-10 weeks old BALB-c mice implanted with 4T1 cells. When the tumor volume reached 75-180 mm^3 (after ˜10 days), treatment was initiated for an additional 21 days. At termination, the animals were sacrificed and their lungs removed, stained with Bouin's solution, and lung lesions were scored under an illuminated magnifying glass.

[4] = system: acetylated histone H4; assay: In vivo histone H4 acetylation in 4T1 tumors (Western blot); parameters: species or system mice; conditions: 100 mg/kg each, 4 hours after treatment, vs vehicle
Description: For the determination of in vitro histone acetylation, 2.5-3×10^6 cells, seeded in 100 mm culture dishes, were supplemented with RPMI medium containing 10% heat inactivated FCS and were treated with the drugs the following day. At the specified times post-treatment, the cells were removed with a rubber policeman, centrifuged, washed, lysed with lysis buffer (PBS, Nonidet® NP-40 1%, sodium deoxycholate 0.5%, sodium dodecyl sulfate (SDS) 0.1%, 1 mM phenylmethylsulfonyl fluoride (PMSF), 1 mM sodium orthovanadate, and 1 μM each of leupeptin and pepstatin) and centrifuged at 10,000 g for 10 minutes at 4° C. […] The extract was then lyophilized, and protein concentration was determined with a BCA kit (Pierce, USA). […] The fold increase of acetylated histones was determined by the ratio of band intensities of treated and untreated cells or mice, normalized to loading control (total histone H3).
Cell lysates or acid extracted histones were solubilized in a concentrated (×4) loading buffer (62.5 mM Tris-HCl, pH 6.8, 1% SDS, 10% glycerol v/v, 1% dithiothreitol (DTT) and 0.1 mg/ml bromophenol blue). […] The membrane was exposed for 5 minutes to Chemiluminescence BioMax light film (Kodak, USA) and the intensity of the bands was measured with a VersaDoc instrument with a Quantityl program (Bio-Rad, USA). […]

[5] = system: 3LLD122 Lewis lung carcinoma; assay: Metastatic Lewis lung carcinoma (3LL) model; assay type: in vivo, mice; conditions: Compound 6 30 mg/kg, Compound 7 25 mg/kg, per os thrice per week, 21 days; p<0.02 vs acyclovir
Description: Female C57/BL mice, 7-10 weeks old, were acclimated for ten days. All in vivo experiments were conducted according to the NIH Laboratory Animal Care Guidelines and in accordance with the guidelines and approval of the Tel Aviv University Committee for Animal Experimentation.
The subclone 3LLD122 of 3LL used in the study was selected for its aggressive and invasive nature. […] The animals were sacrificed after 21 days of treatment, their lungs were weighed, stained with Bouin's fixative and the metastatic lesions were scored double-blindly.

[6] = system: 22RV1 cells; assay: Hoechst viability assay, 22RV1 prostate carcinoma cells; assay type: cell-based, human; conditions: Homo sapiens, 72 hours, Hoechst, read-out: IC50
Description: (§2) Cells (in quadruplicate) at the specified density were suspended in 200 μL medium supplemented with 10% FCS seeded in 96-well plates for 24 hours, then exposed to the drugs for 72 hours. The viability of the cells was determined by Hoechst fluorescent assay as described by Nudelman et al., 2005. Leukemic cell viability after 72 hours of treatment was determined by an MTT (3-(4,5-dimethylthiazol-2-yl)-2,5-diphenyltetrazolium bromide) assay as described by Levovich et al., 2007.
(§3) IC50 values were determined by linear regression of the percentage of survival following drug titration.

[7] = system: U-251 cells; assay: Mitochondrial membrane potential (JC-1 staining), U-251 cells; assay type: cell-based, human; conditions: 60 μM, 24 hour treatment
[8] = system: U-251 cells; assay: Apoptosis/cell death by annexin V-FITC and propidium iodide FACS, U-251 cells; assay type: cell-based; conditions: U-251 cells, 24 hours
Description: Cells were seeded in six-well plates (10^5 cells/well) for 24 hours and were then treated as specified, trypsinized, washed with PBS, double-stained with annexin V-FITC (fluorescein isothiocyanate) and propidium iodide, according to the manufacturer's instructions and subjected to flow cytometry analysis (FACScalibur cytometer, Becton Dickinson).

[9] = system: U-251 cells; assay: Hoechst viability assay, U-251 glioma cells; assay type: cell-based, human; conditions: Homo sapiens, 72 hours, Hoechst, read-out: IC50
Description: as §2, §3

[10] = system: phospho-H2AX (Ser139); assay: Phospho-H2AX Western blot, U-251 cells; assay type: cell-based, human; conditions: 60 μM, 0.5, 2 or 24 hours, peak after 2 hours
Description: Cell lysates or acid extracted histones were solubilized in a concentrated (×4) loading buffer (62.5 mM Tris-HCl, pH 6.8, 1% SDS, 10% glycerol v/v, 1% dithiothreitol (DTT) and 0.1 mg/ml bromophenol blue). Proteins (10-40 μg) were run on SDS-PAGE, transferred to a nitrocellulose membrane (Schleicher & Schuell, Germany) and probed with the primary antibodies, followed by incubation with a horseradish peroxidase (HRP)-goat anti-rabbit IgG or HRP-rabbit anti-mouse IgG as secondary antibodies. HRP bound to the secondary antibodies was visualized by the enhanced chemiluminescence method using the Western Blotting Luminol reagent (Santa Cruz, Calif., USA). The membrane was exposed for 5 minutes to Chemiluminescence BioMax light film (Kodak, USA) and the intensity of the bands was measured with a VersaDoc instrument with a Quantityl program (Bio-Rad, USA). The fold increase of each specific protein was determined by the ratio of band intensities of treated and untreated cells, normalized to loading control (actin or total histone H3).

[11] = system: rat primary cardiomyocytes; assay: ROS production (DCF-DA) in rat primary cardiomyocytes; assay type: cell-based; conditions: 2 μM
Description: Neonatal rat ventricular cardiomyocytes were isolated and cultured in collagen coated culture dishes as described by Shalitin et al., 1996. Growth medium contained DMEM:Ham's F12 (1:1), fetal calf serum (10%) and antibiotics. Treatment was administered to spontaneously beating cardiomyocytes 48 hours after plating.

[12] = system: 4T1 cells; assay: Hoechst viability assay, 4T1 breast carcinoma cells (Dox combination); assay type: cell-based, murine; conditions: Mus musculus, 72 hours, 3 experiments
Description: as §2, §3
The combination index for drug interaction was calculated by Chou's Median Effect Analysis (MEA) [Chou, 2006]. The combination index (CI) was defined as CI=D1/(DM)1+D2/(DM)2, where D1 and D2 are the doses of drug 1 and drug 2, respectively, (DM)1 and (DM)2 are the doses of drug 1 and drug 2 and their mixture (in a specified ratio) required to produce a median effect, e.g., IC50. CI<1, =1 or >1 indicates synergism, additive effect, and antagonism respectively.

[13] = target: T1, proteasome (Homo sapiens, UniProt P28074); assay: Proteasome activity assay, U-251 cells; assay type: cell-based; conditions: 4 or 24 hours, alone or in combination
T1 construct: proteasome activity in U-251 cells treated for 4 or 24 hours; endogenous in cells; host or cells: U-251 cells (lysates of treated cells)
T1 sequence (P28074 60-263): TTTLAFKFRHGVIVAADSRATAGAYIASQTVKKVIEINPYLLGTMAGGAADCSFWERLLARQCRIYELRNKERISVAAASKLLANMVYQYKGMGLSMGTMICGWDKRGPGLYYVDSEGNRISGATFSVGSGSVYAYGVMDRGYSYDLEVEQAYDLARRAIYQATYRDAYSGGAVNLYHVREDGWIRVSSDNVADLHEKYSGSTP
Description: The peptidase or chymotrypsin-like activity of the proteasome was assayed using N-succinyl-Leu-Leu-Val-Tyr-7-amido-4-methylcoumarin. The lysates (100 μL) were incubated with 13 (M of the substrate in 100 mM Tris, pH 7.5, for 1 hour with shaking at room temperature. The reaction was stopped by addition of ice-cold ethanol, and the samples were centrifuged for 5 minutes at 2500 g. The supernatants were collected and the fluorescence was measured with excitation/emission filters of 390/460 nm using the FluoStar fluorimeter. The protein concentration was determined using a BCATM kit (Pierce) and the proteasome activity was derived from the ratio of fluorescence at 460 nm/(g of protein. The percentage of proteasome activity was calculated relative to untreated cells.

[14] = system: U-251 cells; assay: Reactive oxygen species by DCF-DA FACS, U-251 cells; assay type: cell-based, human; conditions: 2 hour treatment
Description: ROS levels were determined by FACS analysis of U-251 cells treated with dichlorodihydrofluorescein diacetate (DCF-DA), which becomes fluorescent when oxidized.

[15] = system: U-251 cells; assay: Cell cycle analysis (propidium iodide flow cytometry), U-251 cells; assay type: cell-based, human; conditions: 24 hours
Description: Cells (4×10^5) were seeded in 35 mm culture dishes and after 24 hours were starved in medium without serum for an additional 24 hours, and then treated with the drug for an additional 24 hours. The cells were then trypsinized to a single cell suspension in PBS, washed, and resuspended in PBS at a concentration of 10^6 cells/mL. The cells were fixed with 70% ethanol for 30 minutes at 4° C., centrifuged and resuspended in 1 ml PBS containing 0.1% Tween 20 and 0.05% bovine serum albumin (BSA). RNase free of DNase was added, and the cell suspension (10^6 cells) was incubated at […] for 30 minutes. The cell suspension was then chilled on ice to a temperature in the range of 2 to 8° C. Propidium iodide (50 μg/mL) was added to the cell suspension, which was than kept in the dark. Red fluorescence (>630 nm) was analyzed on the flow cytometer.

CCCC(=O)Nc1nc2c(ncn2COCCOC(=O)CCC)c(=O)[nH]1 [Compound 7, N-butyryl-9-(2-butyryloxy)ethoxymethylguanine]
Survival (%) ([1]; single per os dose 150 mg/kg): 100%
Survival (%) ([1]; single per os dose 200 mg/kg): 100%
Survival (%) ([1]; single per os dose 250 mg/kg): 100%
Survival (%) ([1]; single per os dose 500 mg/kg): 100%
Survival (%) ([1]; single per os dose 750 mg/kg): 100%
LD50 at 2 weeks [2]: > 750 mg/kg
lung weight ([3]; 25 mg/kg, p<0.05): reduction in lung weight
number of observed lung lesions ([3]; 25 mg/kg, p<0.05): reduction in the number of observed lung lesions
anti-cancer activity (number of metastases and lung weight) [3]: significant anti-cancer activity
levels of acetylated H4 in tumors [4]: significantly higher levels of acetylated H4
number of lung macro-lesions (anti-metastatic activity) [5]: significant anti-metastatic activity

CCCCCCCC(=O)Nc1nc2c(ncn2COCCOC(=O)CCCCCCC)c(=O)[nH]1 [Compound 8, N-octanoyl-9-(2-octanoyloxy)ethoxymethylguanine]
anti-cancer activity (number of metastases and lung weight) [3]: little, if any anticancer activity

CCCC(CCC)C(=O)OCCOCn1cnc2c(=O)[nH]c(N)nc21 [Compound 12, 9-(2-valproyloxy)ethoxymethylguanine]
IC50 [6]: 241 ± 12 µM
mitochondrial membrane potential [7]: no apparent effect
percentage of apoptotic cells [8]: increased the percentage of apoptotic cells in a dose dependent manner
IC50 [9]: 251 ± 12 µM

CCCCCC(=O)Nc1nc2c(ncn2COCCOC(=O)CCCCC)c(=O)[nH]1 [Compound 20, N-hexanoyl-9-(2-hexanoyloxy)-ethoxymethylguanine]
anti-cancer activity (number of metastases and lung weight) [3]: little, if any anticancer activity

O=C(/C=C/c1ccccc1)Nc1nc2c(ncn2COCCOC(=O)/C=C/c2ccccc2)c(=O)[nH]1 [Compound 22, N-cinnamoyl-9-(2-cinnamoyloxy)-ethoxymethylguanine]
mitochondrial membrane potential [7]: no apparent effect
level of phosphorylated H2AX [10]: induced an increase in the level of phosphorylated H2AX

CCCC(CCC)C(=O)Nc1nc2c(ncn2COCCO)c(=O)[nH]1 [Compound 23, N-valproyl-9-(2-hydroxy)ethoxymethylguanine]
IC50 [6]: 402 ± 22 µM
mitochondrial membrane potential [7]: no apparent effect
IC50 [9]: > 750 µM

COc1cccc2c1C(=O)c1c(O)c3c(c(O)c1C2=O)C[C@@](O)(C(=O)CO)C[C@@H]3O[C@H]1C[C@H](N)[C@H](O)[C@H](C)O1 [doxorubicin, reference compound]
production of ROS [11]: increased dramatically the production of ROS
IC50 [12]: 0.0165 µM

CCCC(CCC)C(=O)O [valproic acid, reference compound]
inhibitory effect on proteasome activity [13]: only a marginal inhibitory effect
level of oxidation in cells (ROS) [14]: little if any effect
phase of cell-cycle arrest ([15]; 1 mM): G2-M phase
Percentage of cells in G0-G1 stage ([15]; 1000 μM): 20.3%
Percentage of cells in G2-M stage ([15]; 1000 μM): 47.5%
Percentage of cells in S stage ([15]; 1000 μM): 32.5%
